In ChEMBL document CHEMBL4033724, “Novel sulfonamide-containing 2-indolinones that selectively inhibit tumor-associated alpha carbonic anhydrases” (Bioorg Med Chem, 2017):

How the values were obtained:
[1] = molecular target: Carbonic anhydrase 2 (Homo sapiens, UniProt P00918); assay: Inhibition of recombinant human cytosolic carbonic anhydrase 2 expressed in Escherichia coli pretreated for 15 mins prior to testing by stopped-flow assay
[2] = molecular target: Carbonic anhydrase 1 (Homo sapiens, UniProt P00915); assay: Inhibition of recombinant human cytosolic carbonic anhydrase 1 expressed in Escherichia coli pretreated for 15 mins prior to testing by stopped-flow assay
[3] = molecular target: Carbonic anhydrase 12 (Homo sapiens, UniProt O43570); assay: Inhibition of recombinant human […] expressed in Escherichia coli pretreated for 15 mins prior to testing by stopped-flow assay
[4] = molecular target: Carbonic anhydrase 9 (Homo sapiens, UniProt Q16790); assay: Inhibition of recombinant human membrane bound carbonic anhydrase 9 expressed in Escherichia coli pretreated for 15 mins prior to testing by stopped-flow assay

Chain of Carbonic anhydrase 1 (P00915 whole entry): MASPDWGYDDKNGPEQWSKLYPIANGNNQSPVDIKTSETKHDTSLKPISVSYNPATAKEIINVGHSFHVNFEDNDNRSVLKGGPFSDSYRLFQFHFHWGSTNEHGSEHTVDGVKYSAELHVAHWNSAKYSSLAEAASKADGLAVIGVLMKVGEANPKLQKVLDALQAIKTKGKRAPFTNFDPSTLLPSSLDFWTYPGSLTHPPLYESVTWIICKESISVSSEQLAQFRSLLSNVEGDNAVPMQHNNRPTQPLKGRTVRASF
Chain of Carbonic anhydrase 12 (O43570 whole entry): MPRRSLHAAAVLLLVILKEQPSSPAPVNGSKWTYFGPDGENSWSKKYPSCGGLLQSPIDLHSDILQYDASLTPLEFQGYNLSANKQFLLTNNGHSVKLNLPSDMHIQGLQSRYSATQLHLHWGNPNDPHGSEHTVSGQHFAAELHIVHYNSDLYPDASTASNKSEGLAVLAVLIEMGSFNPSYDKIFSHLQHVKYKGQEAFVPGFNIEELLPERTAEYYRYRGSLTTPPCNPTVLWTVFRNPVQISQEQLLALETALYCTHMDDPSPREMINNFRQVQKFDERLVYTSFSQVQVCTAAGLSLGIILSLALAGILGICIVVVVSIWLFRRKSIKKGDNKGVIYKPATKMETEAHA

Row | Ki [1] | Ki [2] | Ki [3] | Ki [4] | SMILES
1 | 0.551 µM | 0.558 µM | 0.0045 µM | 0.0388 µM | NS(=O)(=O)c1ccc(NC(=S)N/N=C2\C(=O)Nc3ccc(F)cc32)cc1
2 | 0.032 µM | 0.0688 µM | 0.0041 µM | 0.0195 µM | NS(=O)(=O)c1ccc(NC(=S)N/N=C2\C(=O)Nc3ccc([N+](=O)[O-])cc32)cc1
3 | 0.616 µM | 0.65 µM | 0.0058 µM | 0.0542 µM | NS(=O)(=O)c1ccc(NC(=S)N/N=C2\C(=O)Nc3ccc(Cl)cc32)cc1
4 | 0.42 µM | 0.481 µM | 0.006 µM | 0.0457 µM | NS(=O)(=O)c1ccc(NC(=S)N/N=C2\C(=O)Nc3ccc(OC(F)(F)F)cc32)cc1
5 | 0.426 µM | 0.0761 µM | 0.0873 µM | 0.0133 µM | NS(=O)(=O)c1ccc(NC(=S)N/N=C2\C(=O)Nc3c(Cl)cccc32)cc1
6 | 0.782 µM | 0.554 µM | 0.0823 µM | 0.0213 µM | NS(=O)(=O)c1ccc(NC(=S)N/N=C2\C(=O)Nc3c(Cl)cc(Cl)cc32)cc1
7 | 0.851 µM | 0.882 µM | 0.0061 µM | 0.0648 µM | NS(=O)(=O)c1ccc(NC(=S)N/N=C2\C(=O)Nc3ccc(Br)cc32)cc1
8 | 0.897 µM | 0.901 µM | 0.0012 µM | 0.0344 µM | NS(=O)(=O)c1ccc(NC(=S)N/N=C2\C(=O)Nc3ccc(S(=O)(=O)O)cc32)cc1
9 | 0.687 µM | 0.698 µM | 0.0063 µM | 0.0581 µM | NS(=O)(=O)c1ccc(NC(=S)N/N=C2\C(=O)Nc3c(Br)cc(Br)cc32)cc1
10 | 0.399 µM | 0.624 µM | 0.0059 µM | 0.0168 µM | NS(=O)(=O)c1ccc(NC(=S)N/N=C2\C(=O)Nc3ccc(I)cc32)cc1
11 | 0.936 µM | 1.19 µM | 0.0069 µM | 0.0663 µM | NS(=O)(=O)c1ccc(NC(=S)N/N=C2\C(=O)Nc3ccccc32)cc1
12 | 0.0269 µM | 0.0576 µM | 0.0455 µM | 0.0208 µM | NS(=O)(=O)c1ccc(NC(=S)N/N=C2\C(=O)Nc3c(F)cccc32)cc1
13 | 0.735 µM | 0.744 µM | 0.0057 µM | 0.0623 µM | Cc1ccc2c(c1)/C(=N/NC(=S)Nc1ccc(S(N)(=O)=O)cc1)C(=O)N2
